Key:
[1] = system: human CYP1A2; test: Reporter assay in HepG2 cells: secreted alkaline phosphatase (SEAP) activity, which reflects CYP1A2; assay type: cell-based; conditions: for reporter activity (SEAP) compared with DMSO: expression vector K, L or P (only region neighboring CYP1A2); for reporter activity (SEAP) compared with DMSO / reporter activity (SEAP): 40 hours; for reporter activity (SEAP): expression vector M; for SEAP activity compared with the group where DMSO alone was added: reporter vectors A to J, N, O, T and U, 40 hours after addition, 3-MC 1 μM, BNF 10 μM
Method: (§1) Each of the obtained reporter vector comprising the transcriptional regulatory region of human CYP1A1 and CYP1A2 and reporter vectors comprising the transcriptional regulatory region partially deleted was transiently expressed in HepG2 cells (purchased from RIKEN) by using a transfection reagent (FuGene6, Roche), and 40 hours after the addition of a drug dissolved in DMSO or DMSO alone, the activity of a secreted alkaline phosphatase (SEAP), which reflects CYP1A2, and the activity of a luciferase (Luc), which reflects CYP1A1, were measured. LumiPhos 530 (Lumigen Inc.) was used as a substrate for the measurement of the SEAP activity.
In the same manner as that in 4, the expression vectors K to M and P to S obtained above were transiently expressed in HepG2 cells by using the gene transfer reagent, and 40 hours after the addition of a drug dissolved in DMSO or DMSO alone, activity of a secreted alkaline phosphatase (SEAP) was measured (FIG. 5).
(§2) In the same manner as that in 4, each of the expression vectors A to J, N, O, T and U was transiently expressed in HepG2 cells by using the transfection reagent, and 40 hours after the addition of a drug dissolved in DMSO or DMSO alone, activity of a secreted alkaline phosphatase (SEAP), which reflects CYP1A2, and activity of a luciferase (Luc), which reflects CYP1A1, were measured.

[2] = system: human CYP1A1; test: Reporter assay in HepG2 cells: luciferase (Luc) activity, which reflects CYP1A1; conditions: reporter vectors A to J, N, O, T and U, 40 hours after addition, 3-MC 1 μM, BNF 10 μM
Method: Each of the obtained reporter vector comprising the transcriptional regulatory region of human CYP1A1 and CYP1A2 and reporter vectors comprising the transcriptional regulatory region partially deleted was transiently expressed in HepG2 cells (purchased from RIKEN) by using a transfection reagent (FuGene6, Roche), and 40 hours after the addition of a drug dissolved in DMSO or DMSO alone, the activity of a secreted alkaline phosphatase (SEAP), which reflects CYP1A2, and the activity of a luciferase (Luc), which reflects CYP1A1, were measured. LumiPhos 530 (Lumigen Inc.) was used as a substrate for the measurement of the SEAP activity. The Luc activity was measured by using Luciferase Assay System (Promega) (FIG. 3).
as §2

[3] = system: transcriptional regulatory region of human CYP1A1 and CYP1A2; test: Reporter assay in HepG2 cells with dual reporter vectors, reporter (SEAP/Luc) not distinguished in the statement; conditions: for enhancement of expression of the reporter: reporter vector T (comprises XRE E8, lacks 1535 to 2866); for induction of expression of the reporter: reporter vector U (does not comprise XRE E8); for reporter activities compared with DMSO: reporter vectors E1 to E5 (each one XRE deleted), E3 slightly lower; for enhancement of the expression of the reporter: reporter vectors comprising nucleotide numbers 1535 to 2867 in SEQ ID NO: 1 (XREs densely exist), HepG2
Method: as §1
A reporter assay was performed by using the obtained vectors.

SMILES	reporter activity (SEAP) compared with DMSO [1] [fold]	reporter activity (SEAP) [1]	SEAP activity compared with the group where DMSO alone was added [1]	Luc activity compared with the group where DMSO alone was added [2]	enhancement of expression of the reporter [3]	induction of expression of the reporter [3]	reporter activities compared with DMSO [3]	enhancement of the expression of the reporter [3]
Cc1ccc2cc3c(ccc4ccccc43)c3c2c1CC3 [3-MC, 3-methylcholanthrene]	~1	at the background level	increase in the SEAP activity and Luc activity was observed	increase in the SEAP activity and Luc activity was observed	strong enhancement of expression	did not show the induction	several folds to 10 or more folds higher	intense enhancement of the expression
O=c1cc(-c2ccccc2)oc2ccc3ccccc3c12 [BNF, β-naphthoflavone]	~1	at the background level	increase in the SEAP activity and Luc activity was observed	increase in the SEAP activity and Luc activity was observed	strong enhancement of expression	did not show the induction	several folds to 10 or more folds higher	intense enhancement of the expression
COc1ccc2[nH]c([S+]([O-])Cc3ncc(C)c(OC)c3C)nc2c1 (centres unmarked) [omeprazole]							several folds to 10 or more folds higher	
